Assay results published in the NIST ThermoML archive (doi:10.1016/j.fluid.2014.11.020).
Numbers after ± are expanded uncertainties.

Assay: activity coefficient (dimensionless); of the first substance listed, at infinite dilution; xn = mol fraction of the nth substance listed
Conditions: Liquid, Chromatography, x1 = 0

Structure (SMILES)	activity coefficient (323.15 K)	activity coefficient (333.15 K)	activity coefficient (343.15 K)
ClCCl [dichloromethane] + Cn1cc[n+](COCCCOC[n+]2ccn(C)c2)c1.O=S(=O)([N-]S(=O)(=O)C(F)(F)F)C(F)(F)F.O=S(=O)([N-]S(=O)(=O)C(F)(F)F)C(F)(F)F	0.55 ± 0.04	0.61 ± 0.04	0.43 ± 0.04
CCCCCCCCC [nonane] + CCCOC[n+]1ccn(C)c1.F[B-](F)(F)F	553 ± 38	384 ± 26	337 ± 23
CCC[N+](=O)[O-] [1-nitropropane] + CCCCCCCCn1cc[n+](COCCCOC[n+]2ccn(CCCCCCCC)c2C)c1C.N#C[N-]C#N.N#C[N-]C#N	0.59 ± 0.04	0.58 ± 0.04	0.58 ± 0.04
Cc1ccccc1 [toluene] + CCCOC[n+]1ccn(Cc2ccccc2)c1.N#C[N-]C#N	2.29 ± 0.16	2.26 ± 0.15	2.25 ± 0.15
C1CCCCCC1 [cycloheptane] + CCCCCCCCn1cc[n+](COCCC)c1C.O=S(=O)([N-]S(=O)(=O)C(F)(F)F)C(F)(F)F	6.43 ± 0.44	8.72 ± 0.6	11.5 ± 0.78
CCCCCCCCCC [decane] + CCCOC[n+]1ccc(N(C)C)cc1.O=S(=O)([N-]S(=O)(=O)C(F)(F)F)C(F)(F)F	41.1 ± 2.8	38.5 ± 2.6	34.5 ± 2.4
ClC(Cl)(Cl)Cl [tetrachloromethane] + CCCOC[n+]1ccn(C)c1.N#C[N-]C#N	4.04 ± 0.28	4.08 ± 0.28	4.39 ± 0.3
C1CCCCC1 [cyclohexane] + CCCCCCCCn1cc[n+](COCCCOC[n+]2ccn(CCCCCCCC)c2C)c1C.O=S(=O)([N-]S(=O)(=O)C(F)(F)F)C(F)(F)F.O=S(=O)([N-]S(=O)(=O)C(F)(F)F)C(F)(F)F	2.41 ± 0.16	2.22 ± 0.15	2.11 ± 0.14
Cc1ccccc1C [1,2-dimethylbenzene] + CN(C)c1cc[n+](COCCCOC[n+]2ccc(N(C)C)cc2)cc1.O=S(=O)([N-]S(=O)(=O)C(F)(F)F)C(F)(F)F.O=S(=O)([N-]S(=O)(=O)C(F)(F)F)C(F)(F)F	1.18 ± 0.08	1.2 ± 0.08	1.22 ± 0.08
CCC[N+](=O)[O-] [1-nitropropane] + CN(C)c1cc[n+](COCCCOC[n+]2ccc(N(C)C)cc2)cc1.O=S(=O)([N-]S(=O)(=O)C(F)(F)F)C(F)(F)F.O=S(=O)([N-]S(=O)(=O)C(F)(F)F)C(F)(F)F	0.57 ± 0.04	0.59 ± 0.04	0.56 ± 0.04
Cc1ccccc1 [toluene] + N#C[N-]C#N.N#C[N-]C#N.c1ccc(Cn2cc[n+](COCCCOC[n+]3ccn(Cc4ccccc4)c3)c2)cc1	5.08 ± 0.35	4.97 ± 0.34	4.8 ± 0.33
Cc1ccccc1 [toluene] + CCCOC[n+]1ccc(N(C)C)cc1.O=S(=O)([N-]S(=O)(=O)C(F)(F)F)C(F)(F)F	0.99 ± 0.06	1.04 ± 0.07	1.05 ± 0.07
CC1CCCC1 [methylcyclopentane] + CCCCCCCCn1cc[n+](COCCCOC[n+]2ccn(CCCCCCCC)c2C)c1C.O=S(=O)([N-]S(=O)(=O)C(F)(F)F)C(F)(F)F.O=S(=O)([N-]S(=O)(=O)C(F)(F)F)C(F)(F)F	2.52 ± 0.17	2.23 ± 0.15	2.17 ± 0.15
C[N+](=O)[O-] [nitromethane] + CCCOC[n+]1ccn(Cc2ccccc2)c1.O=S(=O)([N-]S(=O)(=O)C(F)(F)F)C(F)(F)F	0.46 ± 0.04	0.4 ± 0.03	0.4 ± 0.03
CC#N [acetonitrile] + CN(C)c1cc[n+](COCCCOC[n+]2ccc(N(C)C)cc2)cc1.O=S(=O)([N-]S(=O)(=O)C(F)(F)F)C(F)(F)F.O=S(=O)([N-]S(=O)(=O)C(F)(F)F)C(F)(F)F	0.37 ± 0.03	0.37 ± 0.03	0.37 ± 0.03
ClC(Cl)(Cl)Cl [tetrachloromethane] + CCCCCCCCn1cc[n+](COCCCOC[n+]2ccn(CCCCCCCC)c2C)c1C.O=S(=O)([N-]S(=O)(=O)C(F)(F)F)C(F)(F)F.O=S(=O)([N-]S(=O)(=O)C(F)(F)F)C(F)(F)F	0.99 ± 0.06	0.92 ± 0.06	1.02 ± 0.06
C#CCCCC [1-hexyne] + CCCOC[n+]1ccn(Cc2ccccc2)c1.F[B-](F)(F)F	5.61 ± 0.38	5.52 ± 0.38	5.42 ± 0.37
C1CCCCCC1 [cycloheptane] + CCCOC[n+]1ccn(C)c1.O=S(=O)([N-]S(=O)(=O)C(F)(F)F)C(F)(F)F	27.2 ± 1.9	35.8 ± 2.5	46.1 ± 3.2
C[N+](=O)[O-] [nitromethane] + Cn1cc[n+](COCCCOC[n+]2ccn(C)c2)c1.N#C[N-]C#N.N#C[N-]C#N	0.56 ± 0.04	0.56 ± 0.04	0.57 ± 0.04
CCCC(C)=O [pentan-2-one] + CCCCCCCCn1cc[n+](COCCC)c1C.O=S(=O)([N-]S(=O)(=O)C(F)(F)F)C(F)(F)F	0.48 ± 0.04	0.48 ± 0.04	0.48 ± 0.04
